Source: publication doi:10.1101/2024.08.19.608619, “Discovery of potent SARS-CoV-2 nsp3 macrodomain inhibitors uncovers lack of translation to cellular antiviral response” (bioRxiv, 2024)
Values after ≈ are worked out from the molar mass of the structure shown. Where two headings read alike, the source gives them in different places.

Experiments:
LogD = details: pH 7.4; In vitro LogD
IGF-1R(h) = molecular target: T1, IGF-1R(h) (Homo sapiens, UniProt P08069); assay: biochemical; parameters: In vitro kinase panel profiling, per cent remaining kinase activity at 10 uM; details: atp_concentration=200, read-out: % of control remaining
T1 construct: gene IGF1R
Description: (§1) We derisk potential for off-target activity by profiling the compound in a CEREP panel, a standard secondary pharmacology assessment, as well as a kinase panel to derisk a potential hinge-binding motif in our leads, and a PARP panel to derisk activity against human […]. Reassuringly, the compounds are selective, with the only off-targets being moderate human CHRM2 and KOR receptors activity associated with ASAP-0011198.

MSK2(h) = molecular target: T2, MSK2(h) (Homo sapiens, UniProt O75676); assay: biochemical; parameters: In vitro kinase panel profiling, per cent remaining kinase activity at 10 uM; details: atp_concentration=45, read-out: % of control remaining
T2 construct: gene RPS6KA4
Description: as §1

NEK2(h) = molecular target: T3, NEK2(h) (Homo sapiens, UniProt P51955); assay: biochemical; parameters: In vitro kinase panel profiling, per cent remaining kinase activity at 10 uM; details: atp_concentration=120, read-out: % of control remaining
T3 sequence (P51955 1-445): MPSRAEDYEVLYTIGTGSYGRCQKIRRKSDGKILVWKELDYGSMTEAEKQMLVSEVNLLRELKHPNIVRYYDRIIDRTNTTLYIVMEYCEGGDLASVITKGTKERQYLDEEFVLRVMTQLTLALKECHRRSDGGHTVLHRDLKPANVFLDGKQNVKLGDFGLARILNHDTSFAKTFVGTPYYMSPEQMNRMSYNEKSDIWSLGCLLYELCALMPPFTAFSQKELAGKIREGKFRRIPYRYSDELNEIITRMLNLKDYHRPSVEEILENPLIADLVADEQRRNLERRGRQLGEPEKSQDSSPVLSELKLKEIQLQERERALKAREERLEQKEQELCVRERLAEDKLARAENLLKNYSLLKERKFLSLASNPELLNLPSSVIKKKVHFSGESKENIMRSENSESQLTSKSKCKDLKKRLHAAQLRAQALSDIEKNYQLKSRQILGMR
Description: as §1

PDGFRβ(h) = molecular target: T4, PDGFRβ(h) (Homo sapiens, UniProt P09619); assay: biochemical; parameters: In vitro kinase panel profiling, per cent remaining kinase activity at 10 uM; details: atp_concentration=200, read-out: % of control remaining
T4 construct: gene PDGFRB
Description: as §1

[1] = molecular target: T5, PI3 Kinase (p110δ/p85α)(h) (Homo sapiens, UniProt O00329); assay: biochemical; parameters: In vitro kinase panel profiling, per cent remaining kinase activity at 10 uM; details: atp_concentration=200, read-out: % of control remaining
T5 construct: gene PIK3CD
Description: as §1

PKA(h) = molecular target: T6, PKA(h) (Homo sapiens, UniProt P17612); assay: biochemical; parameters: In vitro kinase panel profiling, per cent remaining kinase activity at 10 uM; details: atp_concentration=10, read-out: % of control remaining
T6 construct: gene PRKACA
Description: as §1

ROCK-I(h) = molecular target: T7, ROCK-I(h) (Homo sapiens, UniProt Q13464); assay: biochemical; parameters: In vitro kinase panel profiling, per cent remaining kinase activity at 10 uM; details: atp_concentration=70, read-out: % of control remaining
T7 construct: gene ROCK1
Description: as §1

TAK1(h) = molecular target: T8, TAK1(h) (Homo sapiens, UniProt O43318); assay: biochemical; parameters: In vitro kinase panel profiling, per cent remaining kinase activity at 10 uM; details: atp_concentration=45, read-out: % of control remaining
T8 construct: gene MAP3K7
T8 sequence (O43318 1-606): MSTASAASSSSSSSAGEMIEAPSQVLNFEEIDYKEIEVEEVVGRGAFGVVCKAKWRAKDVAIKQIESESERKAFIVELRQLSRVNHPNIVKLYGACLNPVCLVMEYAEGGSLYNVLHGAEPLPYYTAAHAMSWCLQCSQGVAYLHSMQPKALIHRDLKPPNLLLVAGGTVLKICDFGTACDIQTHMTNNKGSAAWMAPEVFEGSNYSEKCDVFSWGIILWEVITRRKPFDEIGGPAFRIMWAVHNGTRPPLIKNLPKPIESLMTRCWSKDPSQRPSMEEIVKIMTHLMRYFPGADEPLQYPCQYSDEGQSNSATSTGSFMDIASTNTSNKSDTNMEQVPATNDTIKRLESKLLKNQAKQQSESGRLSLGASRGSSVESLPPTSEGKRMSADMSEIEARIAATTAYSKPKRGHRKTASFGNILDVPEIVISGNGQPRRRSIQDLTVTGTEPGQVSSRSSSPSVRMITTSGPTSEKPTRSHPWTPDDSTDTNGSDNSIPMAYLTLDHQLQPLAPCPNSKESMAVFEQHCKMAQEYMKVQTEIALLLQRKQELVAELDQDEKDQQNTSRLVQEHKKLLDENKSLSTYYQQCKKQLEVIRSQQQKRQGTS
Description: as §1

mTOR(h) = mTOR(h) (Homo sapiens, UniProt P42345); assay: biochemical; parameters: In vitro kinase panel profiling, per cent remaining kinase activity at 10 uM; details: atp_concentration=70, read-out: % of control remaining
Description: as §1

[2] = In vitro kinetic solubility; details: In vitro kinetic solubility, ph 7.4

T7 sequence (Q13464 whole entry): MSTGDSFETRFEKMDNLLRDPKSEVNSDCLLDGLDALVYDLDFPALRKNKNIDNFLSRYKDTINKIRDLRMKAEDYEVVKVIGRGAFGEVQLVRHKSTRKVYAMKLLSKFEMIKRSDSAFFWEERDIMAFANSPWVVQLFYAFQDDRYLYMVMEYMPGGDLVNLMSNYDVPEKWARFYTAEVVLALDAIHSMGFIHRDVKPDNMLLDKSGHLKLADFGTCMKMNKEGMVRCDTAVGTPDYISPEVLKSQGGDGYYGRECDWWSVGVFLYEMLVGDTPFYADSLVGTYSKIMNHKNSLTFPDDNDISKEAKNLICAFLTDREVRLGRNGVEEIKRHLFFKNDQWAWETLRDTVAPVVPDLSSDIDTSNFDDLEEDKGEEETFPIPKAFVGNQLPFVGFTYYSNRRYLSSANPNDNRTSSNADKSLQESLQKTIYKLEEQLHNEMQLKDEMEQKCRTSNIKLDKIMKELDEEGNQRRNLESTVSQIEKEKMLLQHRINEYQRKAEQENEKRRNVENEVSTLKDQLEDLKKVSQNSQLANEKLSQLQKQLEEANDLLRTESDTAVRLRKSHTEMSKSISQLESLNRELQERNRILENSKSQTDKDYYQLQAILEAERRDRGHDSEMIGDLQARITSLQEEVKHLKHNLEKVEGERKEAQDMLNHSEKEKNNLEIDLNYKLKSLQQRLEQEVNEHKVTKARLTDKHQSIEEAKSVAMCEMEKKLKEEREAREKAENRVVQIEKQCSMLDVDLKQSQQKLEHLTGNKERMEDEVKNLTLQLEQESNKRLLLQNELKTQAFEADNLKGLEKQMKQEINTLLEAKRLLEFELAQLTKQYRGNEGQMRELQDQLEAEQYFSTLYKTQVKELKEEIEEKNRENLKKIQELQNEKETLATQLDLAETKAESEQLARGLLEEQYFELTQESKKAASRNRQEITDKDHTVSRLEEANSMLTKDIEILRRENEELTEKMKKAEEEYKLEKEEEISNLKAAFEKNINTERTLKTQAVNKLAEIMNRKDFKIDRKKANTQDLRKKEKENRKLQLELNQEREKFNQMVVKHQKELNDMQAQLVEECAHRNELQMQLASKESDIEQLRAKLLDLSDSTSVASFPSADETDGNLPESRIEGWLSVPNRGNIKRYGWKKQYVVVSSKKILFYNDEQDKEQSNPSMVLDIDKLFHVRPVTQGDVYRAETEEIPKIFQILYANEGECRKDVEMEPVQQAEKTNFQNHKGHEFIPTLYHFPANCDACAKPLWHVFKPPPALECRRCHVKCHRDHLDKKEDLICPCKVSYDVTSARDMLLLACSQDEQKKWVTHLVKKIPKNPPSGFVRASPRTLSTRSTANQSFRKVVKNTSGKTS
T4 sequence (P09619 whole entry): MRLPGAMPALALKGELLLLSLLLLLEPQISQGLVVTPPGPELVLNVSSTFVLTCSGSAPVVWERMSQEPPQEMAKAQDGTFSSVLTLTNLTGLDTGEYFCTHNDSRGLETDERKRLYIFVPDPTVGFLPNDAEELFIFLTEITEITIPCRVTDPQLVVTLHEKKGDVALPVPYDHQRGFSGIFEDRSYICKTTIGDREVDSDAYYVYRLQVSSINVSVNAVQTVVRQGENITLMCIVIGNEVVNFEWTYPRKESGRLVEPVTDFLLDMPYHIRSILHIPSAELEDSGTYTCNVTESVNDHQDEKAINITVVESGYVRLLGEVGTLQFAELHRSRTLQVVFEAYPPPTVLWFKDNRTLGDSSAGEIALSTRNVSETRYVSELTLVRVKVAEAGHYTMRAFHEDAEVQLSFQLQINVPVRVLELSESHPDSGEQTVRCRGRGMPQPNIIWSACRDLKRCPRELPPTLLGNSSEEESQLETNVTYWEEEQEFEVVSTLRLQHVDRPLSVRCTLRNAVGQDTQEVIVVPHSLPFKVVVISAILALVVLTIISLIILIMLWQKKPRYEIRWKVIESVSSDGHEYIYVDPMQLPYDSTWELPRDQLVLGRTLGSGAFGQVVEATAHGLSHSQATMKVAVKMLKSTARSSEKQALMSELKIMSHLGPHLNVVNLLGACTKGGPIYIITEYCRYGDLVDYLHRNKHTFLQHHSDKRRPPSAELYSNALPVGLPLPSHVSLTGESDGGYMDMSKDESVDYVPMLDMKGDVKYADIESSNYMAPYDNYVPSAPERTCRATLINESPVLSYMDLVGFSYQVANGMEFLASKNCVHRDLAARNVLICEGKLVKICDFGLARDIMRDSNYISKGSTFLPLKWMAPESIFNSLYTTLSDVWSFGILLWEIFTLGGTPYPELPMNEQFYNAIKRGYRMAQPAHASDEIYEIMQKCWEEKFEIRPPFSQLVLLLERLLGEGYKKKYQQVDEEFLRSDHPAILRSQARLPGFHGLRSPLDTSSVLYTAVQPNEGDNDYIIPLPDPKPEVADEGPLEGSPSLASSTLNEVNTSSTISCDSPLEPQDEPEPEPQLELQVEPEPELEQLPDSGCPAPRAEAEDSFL
T1 sequence (P08069 whole entry): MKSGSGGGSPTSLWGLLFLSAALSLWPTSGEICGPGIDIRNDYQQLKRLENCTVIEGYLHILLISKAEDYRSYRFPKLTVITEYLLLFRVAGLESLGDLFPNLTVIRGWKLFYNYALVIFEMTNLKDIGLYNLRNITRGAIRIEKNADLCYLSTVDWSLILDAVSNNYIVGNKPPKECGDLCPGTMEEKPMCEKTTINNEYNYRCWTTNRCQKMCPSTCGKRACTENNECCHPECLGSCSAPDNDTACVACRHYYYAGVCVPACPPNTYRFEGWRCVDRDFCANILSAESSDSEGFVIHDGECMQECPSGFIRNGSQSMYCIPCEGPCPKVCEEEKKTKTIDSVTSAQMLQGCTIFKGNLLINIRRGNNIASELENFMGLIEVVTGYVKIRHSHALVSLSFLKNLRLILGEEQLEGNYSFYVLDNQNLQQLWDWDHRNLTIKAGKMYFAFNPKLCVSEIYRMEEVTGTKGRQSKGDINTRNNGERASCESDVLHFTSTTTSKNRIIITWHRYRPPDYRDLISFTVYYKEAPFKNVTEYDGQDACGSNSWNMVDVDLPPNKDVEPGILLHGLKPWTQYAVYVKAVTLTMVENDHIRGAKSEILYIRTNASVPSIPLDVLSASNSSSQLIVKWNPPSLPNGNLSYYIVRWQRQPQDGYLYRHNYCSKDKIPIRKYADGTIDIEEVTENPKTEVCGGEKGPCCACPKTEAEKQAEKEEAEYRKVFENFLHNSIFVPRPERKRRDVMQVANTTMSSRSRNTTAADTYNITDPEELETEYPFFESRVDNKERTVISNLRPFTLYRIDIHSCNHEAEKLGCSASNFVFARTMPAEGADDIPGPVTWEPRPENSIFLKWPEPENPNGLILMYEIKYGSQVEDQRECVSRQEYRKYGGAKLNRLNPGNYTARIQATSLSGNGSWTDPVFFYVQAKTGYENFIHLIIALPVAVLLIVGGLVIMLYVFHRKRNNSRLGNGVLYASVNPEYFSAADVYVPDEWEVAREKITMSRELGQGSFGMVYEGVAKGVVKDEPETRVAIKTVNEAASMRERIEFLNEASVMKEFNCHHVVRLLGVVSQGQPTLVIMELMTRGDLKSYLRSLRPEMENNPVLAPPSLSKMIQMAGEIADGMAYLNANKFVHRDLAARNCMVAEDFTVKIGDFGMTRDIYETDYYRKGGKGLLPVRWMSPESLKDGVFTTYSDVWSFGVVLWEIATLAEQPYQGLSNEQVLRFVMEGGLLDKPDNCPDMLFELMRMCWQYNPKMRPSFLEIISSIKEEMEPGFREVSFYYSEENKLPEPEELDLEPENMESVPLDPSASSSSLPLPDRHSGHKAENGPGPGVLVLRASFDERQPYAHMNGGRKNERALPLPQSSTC
T2 sequence (O75676 whole entry): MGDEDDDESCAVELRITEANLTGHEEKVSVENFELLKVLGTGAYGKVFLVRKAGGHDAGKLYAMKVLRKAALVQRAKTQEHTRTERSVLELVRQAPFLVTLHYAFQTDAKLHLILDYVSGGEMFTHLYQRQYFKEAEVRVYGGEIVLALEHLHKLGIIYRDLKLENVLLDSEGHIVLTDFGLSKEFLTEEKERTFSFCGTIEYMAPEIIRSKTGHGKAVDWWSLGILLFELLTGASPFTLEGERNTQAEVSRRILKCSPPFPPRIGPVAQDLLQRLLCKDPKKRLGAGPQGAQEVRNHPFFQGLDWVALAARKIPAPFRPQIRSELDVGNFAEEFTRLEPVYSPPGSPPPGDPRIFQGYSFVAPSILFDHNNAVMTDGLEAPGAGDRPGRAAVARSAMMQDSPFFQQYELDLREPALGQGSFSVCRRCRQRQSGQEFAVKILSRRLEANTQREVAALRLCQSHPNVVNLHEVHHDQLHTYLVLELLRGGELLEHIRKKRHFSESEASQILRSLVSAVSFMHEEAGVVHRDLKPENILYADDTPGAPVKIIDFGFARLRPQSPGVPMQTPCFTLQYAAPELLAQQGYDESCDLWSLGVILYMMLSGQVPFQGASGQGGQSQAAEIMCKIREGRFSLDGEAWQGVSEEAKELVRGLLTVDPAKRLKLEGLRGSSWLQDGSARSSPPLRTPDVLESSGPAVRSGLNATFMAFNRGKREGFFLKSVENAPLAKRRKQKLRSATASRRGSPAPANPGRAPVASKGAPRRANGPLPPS

Compound `C[C@H](C(=O)O)[C@@H](NC(=O)c1ncnc2[nH]ccc12)c1ccc(Br)cc1` [ASAP-0014722] has a logd (LogD) of 0.6, a remaining activity at 10 µM (IGF-1R(h); batch_name=ASAP-0014722-002) of 95% and a remaining activity at 10 µM (MSK2(h); batch_name=ASAP-0014722-002) of 90%. The remaining activity at 10 µM (NEK2(h); batch_name=ASAP-0014722-002) was 101%, the remaining activity at 10 µM (PDGFRβ(h); batch_name=ASAP-0014722-002) was 110% and the remaining activity at 10 µM ([1]; batch_name=ASAP-0014722-002) was 97%. It also gave a remaining activity at 10 µM (PKA(h); batch_name=ASAP-0014722-002) of 87%, a remaining activity at 10 µM (ROCK-I(h); batch_name=ASAP-0014722-002) of 90% and a remaining activity at 10 µM (TAK1(h); batch_name=ASAP-0014722-002) of 95%. For the same compound, the remaining activity at 10 µM (mTOR(h); batch_name=ASAP-0014722-002) was 100% and the solubility_mean [2] was 358 µM (≈ 144 µg/mL).
`CNCc1cc(-c2cc3c(N[C@@H](c4ccc5c(c4)S(=O)(=O)CCC5)C(C)C)ncnc3[nH]2)co1` [ASAP-0011176] showed a logd (LogD) of 2.2, a remaining activity at 10 µM (IGF-1R(h); batch_name=ASAP-0011176-002) of 99% and a remaining activity at 10 µM (MSK2(h); batch_name=ASAP-0011176-002) of 91%. For the same compound, the remaining activity at 10 µM (NEK2(h); batch_name=ASAP-0011176-002) was 105%, the remaining activity at 10 µM (PDGFRβ(h); batch_name=ASAP-0011176-002) was 89% and the remaining activity at 10 µM ([1]; batch_name=ASAP-0011176-002) was 80%. The remaining activity at 10 µM (PKA(h); batch_name=ASAP-0011176-002) was 96%, the remaining activity at 10 µM (ROCK-I(h); batch_name=ASAP-0011176-002) was 102% and the remaining activity at 10 µM (TAK1(h); batch_name=ASAP-0011176-002) was 90%. The remaining activity at 10 µM (mTOR(h); batch_name=ASAP-0011176-002) was 105% and the solubility_mean [2] was 345 µM (≈ 165 µg/mL).
`CC(C)[C@H](Nc1ncnc2[nH]ccc12)c1ccc2c(c1)S(=O)(=O)CCC2` [ASAP-0008674] showed a logd (LogD) of 2.7, a remaining activity at 10 µM (IGF-1R(h); batch_name=ASAP-0008674-002) of 100% and a remaining activity at 10 µM (MSK2(h); batch_name=ASAP-0008674-002) of 92%. For the same compound, the remaining activity at 10 µM (NEK2(h); batch_name=ASAP-0008674-002) was 109%, the remaining activity at 10 µM (PDGFRβ(h); batch_name=ASAP-0008674-002) was 89% and the remaining activity at 10 µM ([1]; batch_name=ASAP-0008674-002) was 99%. For the same compound, the remaining activity at 10 µM (PKA(h); batch_name=ASAP-0008674-002) was 89%, the remaining activity at 10 µM (ROCK-I(h); batch_name=ASAP-0008674-002) was 115% and the remaining activity at 10 µM (TAK1(h); batch_name=ASAP-0008674-002) was 90%. The remaining activity at 10 µM (mTOR(h); batch_name=ASAP-0008674-002) was 99% and the solubility_mean [2] was 374 µM (≈ 139 µg/mL).
`CC(C)[C@H](Nc1ncnc2[nH]c(-c3cnn(C)c3C#N)cc12)c1ccc2c(n1)OCCO2` [ASAP-0010715] gave a logd (LogD) of 3.7, a remaining activity at 10 µM (IGF-1R(h); batch_name=ASAP-0010715-002) of 85% and a remaining activity at 10 µM (MSK2(h); batch_name=ASAP-0010715-002) of 114%. It also gave a remaining activity at 10 µM (NEK2(h); batch_name=ASAP-0010715-002) of 105%, a remaining activity at 10 µM (PDGFRβ(h); batch_name=ASAP-0010715-002) of 92% and a remaining activity at 10 µM ([1]; batch_name=ASAP-0010715-002) of 66%. For the same compound, the remaining activity at 10 µM (PKA(h); batch_name=ASAP-0010715-002) was 82%, the remaining activity at 10 µM (ROCK-I(h); batch_name=ASAP-0010715-002) was 115% and the remaining activity at 10 µM (TAK1(h); batch_name=ASAP-0010715-002) was 94%. The remaining activity at 10 µM (mTOR(h); batch_name=ASAP-0010715-002) was 104% and the solubility_mean [2] was 53 µM (≈ 22.8 µg/mL).
